Among the data in the supplement of paper PMC12076712 are pIC50 values, retold here.

What all share (test): pIC50, kinobeads binding competition
One test deals with T1, UHMK1 (UniProt Q8TAS1).
T1 sequence (whole entry): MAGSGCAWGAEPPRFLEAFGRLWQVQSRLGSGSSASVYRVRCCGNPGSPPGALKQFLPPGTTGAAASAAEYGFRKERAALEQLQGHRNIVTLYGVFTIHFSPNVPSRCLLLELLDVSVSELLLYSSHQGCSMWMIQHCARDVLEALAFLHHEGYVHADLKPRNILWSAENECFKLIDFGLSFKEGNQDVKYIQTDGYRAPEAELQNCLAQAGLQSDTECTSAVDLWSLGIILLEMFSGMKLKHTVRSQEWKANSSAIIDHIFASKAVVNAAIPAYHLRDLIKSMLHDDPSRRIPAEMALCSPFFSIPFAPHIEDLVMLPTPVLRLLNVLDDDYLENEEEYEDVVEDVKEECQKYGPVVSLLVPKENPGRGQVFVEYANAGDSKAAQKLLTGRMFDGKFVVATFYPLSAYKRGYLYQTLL
Conditions: cell material: Jurkat lysate.

The next test deals with UniProt P05129. Conditions: cell material: Jurkat cells. In a few lines: (§1)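 Nine compound concentrations were tested, starting at 30 μM in 1:4 steps on live Jurkat cells (60 min, 37 °C, then lysis) or in 1:5 steps on Jurkat lysate or a 1:1:1:1 HEK293/K-562/HepG2/placenta lysate mix (60 min, 4 °C). Kinobeads-bound proteins were digested and quantified with TMT10 LC-MS/MS. pIC50 values are from logistic dose-response fits in the R drc package of fold changes relative to vehicle, from biological duplicates.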

In the next test the target is PIK3CD (UniProt O00329). The following applies: cell material: Jurkat cells. The method, boiled down:
as §1

Another test addresses UniProt P78368. Conditions: cell material: Lysate mix. The method, boiled down: as §1
The next test concerns the target STRADB (UniProt Q9C0K7). The following applies: cell material: Lysate mix. In a few lines:
as §1

The next test concerns the target TWF1 (UniProt Q12792). Conditions: cell material: Lysate mix. In a few lines:
as §1

For another test, the target named is UniProt Q9P286. Conditions: cell material: Lysate mix. In a few lines: as §1
In another test the target is UniProt P35590. Conditions: cell material: Lysate mix. The method, boiled down: as §1
In a further test the target is UniProt P19525. The following applies: cell material: Lysate mix. In a few lines:
as §1

The target in the next test is UniProt Q05513. Conditions: cell material: Lysate mix. In a few lines: as §1
The target in the next test is TYRO3 (UniProt Q06418). Conditions: cell material: Jurkat lysate. The method, boiled down: as §1
The target in a further test is RIPK1 (UniProt Q13546). Conditions: cell material: Jurkat cells. The method, boiled down: as §1
The next test addresses MTOR (UniProt P42345). Conditions: cell material: Jurkat cells. In a few lines:
as §1

In a further test the target is PAK6 (UniProt Q9NQU5). The following applies: cell material: Jurkat lysate. The method, boiled down:
as §1

The next test addresses PASK (UniProt Q96RG2). Conditions: cell material: Jurkat cells. The method, boiled down: as §1
A further test has as its target UniProt Q6DT37. The following applies: cell material: Lysate mix. The method, boiled down:
as §1

Sequence of UniProt P35590 (P35590 whole entry): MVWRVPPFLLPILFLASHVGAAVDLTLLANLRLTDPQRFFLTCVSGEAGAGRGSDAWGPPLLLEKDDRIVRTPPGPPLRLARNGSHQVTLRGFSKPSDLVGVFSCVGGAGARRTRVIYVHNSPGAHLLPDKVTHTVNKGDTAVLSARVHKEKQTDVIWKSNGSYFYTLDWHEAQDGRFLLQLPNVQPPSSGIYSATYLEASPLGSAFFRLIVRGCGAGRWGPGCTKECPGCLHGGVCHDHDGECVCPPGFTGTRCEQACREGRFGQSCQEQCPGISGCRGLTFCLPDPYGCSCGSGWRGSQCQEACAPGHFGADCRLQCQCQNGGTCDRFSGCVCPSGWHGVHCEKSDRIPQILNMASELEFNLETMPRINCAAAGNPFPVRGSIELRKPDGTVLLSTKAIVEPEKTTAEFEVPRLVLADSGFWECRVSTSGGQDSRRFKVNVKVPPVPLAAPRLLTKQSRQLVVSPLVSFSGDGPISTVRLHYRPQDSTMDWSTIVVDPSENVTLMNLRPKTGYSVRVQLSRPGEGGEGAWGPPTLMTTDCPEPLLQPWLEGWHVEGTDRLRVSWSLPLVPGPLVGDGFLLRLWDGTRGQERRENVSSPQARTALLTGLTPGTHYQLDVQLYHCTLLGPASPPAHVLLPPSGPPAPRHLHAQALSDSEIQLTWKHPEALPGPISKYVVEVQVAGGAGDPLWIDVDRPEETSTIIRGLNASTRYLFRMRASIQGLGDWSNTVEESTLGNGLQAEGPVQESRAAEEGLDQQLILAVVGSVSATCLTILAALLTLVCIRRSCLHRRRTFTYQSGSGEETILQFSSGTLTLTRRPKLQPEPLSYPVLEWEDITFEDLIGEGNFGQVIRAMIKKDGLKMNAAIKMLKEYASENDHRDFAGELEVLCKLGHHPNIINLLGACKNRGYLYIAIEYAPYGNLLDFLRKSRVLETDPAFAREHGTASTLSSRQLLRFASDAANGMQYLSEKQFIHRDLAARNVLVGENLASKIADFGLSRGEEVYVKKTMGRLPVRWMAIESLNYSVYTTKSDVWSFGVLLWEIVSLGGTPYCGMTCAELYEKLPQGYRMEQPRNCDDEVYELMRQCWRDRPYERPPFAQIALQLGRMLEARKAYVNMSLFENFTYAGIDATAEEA
Sequence of PASK (Q96RG2 whole entry): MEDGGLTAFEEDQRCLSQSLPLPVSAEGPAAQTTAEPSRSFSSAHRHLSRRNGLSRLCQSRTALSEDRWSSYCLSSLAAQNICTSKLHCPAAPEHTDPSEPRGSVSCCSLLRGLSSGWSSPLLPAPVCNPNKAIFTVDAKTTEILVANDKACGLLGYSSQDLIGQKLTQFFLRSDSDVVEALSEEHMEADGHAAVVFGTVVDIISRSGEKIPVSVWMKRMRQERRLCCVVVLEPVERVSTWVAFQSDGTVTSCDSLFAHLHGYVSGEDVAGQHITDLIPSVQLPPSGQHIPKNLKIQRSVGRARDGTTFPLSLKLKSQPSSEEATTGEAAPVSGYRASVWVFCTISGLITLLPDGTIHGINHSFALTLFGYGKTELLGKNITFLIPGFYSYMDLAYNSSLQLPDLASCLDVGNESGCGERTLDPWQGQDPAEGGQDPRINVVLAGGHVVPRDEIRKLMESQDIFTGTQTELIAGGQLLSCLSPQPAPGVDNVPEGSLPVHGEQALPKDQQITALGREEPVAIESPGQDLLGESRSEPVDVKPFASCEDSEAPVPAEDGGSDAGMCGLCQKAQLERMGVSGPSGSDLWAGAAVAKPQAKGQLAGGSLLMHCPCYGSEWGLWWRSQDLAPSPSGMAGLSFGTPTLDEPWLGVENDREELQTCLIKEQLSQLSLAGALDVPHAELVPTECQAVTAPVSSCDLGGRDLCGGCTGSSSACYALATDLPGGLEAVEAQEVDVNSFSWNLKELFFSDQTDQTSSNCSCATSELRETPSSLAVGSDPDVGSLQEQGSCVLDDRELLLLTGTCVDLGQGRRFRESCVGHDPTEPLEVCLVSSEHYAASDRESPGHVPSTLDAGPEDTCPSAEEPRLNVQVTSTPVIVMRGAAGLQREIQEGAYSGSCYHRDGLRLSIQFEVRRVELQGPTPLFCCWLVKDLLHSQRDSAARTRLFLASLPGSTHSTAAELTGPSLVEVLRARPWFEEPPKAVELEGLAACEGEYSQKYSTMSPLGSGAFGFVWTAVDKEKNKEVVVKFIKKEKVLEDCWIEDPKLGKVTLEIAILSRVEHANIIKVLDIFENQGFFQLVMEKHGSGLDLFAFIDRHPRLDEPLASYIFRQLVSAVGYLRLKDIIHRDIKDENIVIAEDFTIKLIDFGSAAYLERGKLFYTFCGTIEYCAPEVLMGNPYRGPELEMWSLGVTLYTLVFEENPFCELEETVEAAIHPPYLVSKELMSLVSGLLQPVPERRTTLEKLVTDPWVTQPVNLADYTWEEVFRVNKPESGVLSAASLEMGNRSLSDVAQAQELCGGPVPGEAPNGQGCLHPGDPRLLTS
Sequence of TWF1 (Q12792 whole entry): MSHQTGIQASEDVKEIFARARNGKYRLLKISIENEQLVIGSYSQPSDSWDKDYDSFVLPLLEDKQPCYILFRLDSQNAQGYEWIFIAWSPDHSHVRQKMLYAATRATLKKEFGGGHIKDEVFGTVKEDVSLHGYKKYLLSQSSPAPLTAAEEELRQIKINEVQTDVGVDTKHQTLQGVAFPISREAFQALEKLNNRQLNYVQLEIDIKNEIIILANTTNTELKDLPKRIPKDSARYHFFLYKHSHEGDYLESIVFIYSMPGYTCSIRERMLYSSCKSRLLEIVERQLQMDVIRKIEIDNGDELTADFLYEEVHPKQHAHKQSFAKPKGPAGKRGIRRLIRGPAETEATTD
Sequence of UniProt P78368 (P78368 whole entry, looked up): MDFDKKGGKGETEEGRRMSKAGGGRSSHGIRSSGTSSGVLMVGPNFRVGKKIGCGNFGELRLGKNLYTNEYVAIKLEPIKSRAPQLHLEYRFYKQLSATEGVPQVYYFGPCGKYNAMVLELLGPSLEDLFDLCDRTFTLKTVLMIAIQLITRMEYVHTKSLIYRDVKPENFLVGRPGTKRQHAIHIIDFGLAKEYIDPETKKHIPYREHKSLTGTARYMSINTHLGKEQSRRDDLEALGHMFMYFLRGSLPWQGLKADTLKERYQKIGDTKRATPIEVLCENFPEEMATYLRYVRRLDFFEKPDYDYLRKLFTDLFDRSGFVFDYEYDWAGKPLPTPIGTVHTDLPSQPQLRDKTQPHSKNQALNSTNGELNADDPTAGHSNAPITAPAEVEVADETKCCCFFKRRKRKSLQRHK
Sequence of UniProt P19525 (P19525 whole entry): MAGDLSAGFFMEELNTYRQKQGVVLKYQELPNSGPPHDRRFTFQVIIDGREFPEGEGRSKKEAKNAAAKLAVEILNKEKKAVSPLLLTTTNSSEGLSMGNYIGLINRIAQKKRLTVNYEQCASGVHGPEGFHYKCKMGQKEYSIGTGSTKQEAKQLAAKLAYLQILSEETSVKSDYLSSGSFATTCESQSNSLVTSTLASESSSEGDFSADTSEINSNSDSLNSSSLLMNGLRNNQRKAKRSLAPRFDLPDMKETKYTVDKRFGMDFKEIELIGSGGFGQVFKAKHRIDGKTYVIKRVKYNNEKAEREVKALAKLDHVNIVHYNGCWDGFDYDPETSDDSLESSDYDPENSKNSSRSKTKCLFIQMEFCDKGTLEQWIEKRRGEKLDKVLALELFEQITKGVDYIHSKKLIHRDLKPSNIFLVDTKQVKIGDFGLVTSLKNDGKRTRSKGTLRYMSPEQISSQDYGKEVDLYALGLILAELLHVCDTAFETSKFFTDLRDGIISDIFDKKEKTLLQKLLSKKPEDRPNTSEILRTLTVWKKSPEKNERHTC
Sequence of UniProt Q05513 (Q05513 whole entry): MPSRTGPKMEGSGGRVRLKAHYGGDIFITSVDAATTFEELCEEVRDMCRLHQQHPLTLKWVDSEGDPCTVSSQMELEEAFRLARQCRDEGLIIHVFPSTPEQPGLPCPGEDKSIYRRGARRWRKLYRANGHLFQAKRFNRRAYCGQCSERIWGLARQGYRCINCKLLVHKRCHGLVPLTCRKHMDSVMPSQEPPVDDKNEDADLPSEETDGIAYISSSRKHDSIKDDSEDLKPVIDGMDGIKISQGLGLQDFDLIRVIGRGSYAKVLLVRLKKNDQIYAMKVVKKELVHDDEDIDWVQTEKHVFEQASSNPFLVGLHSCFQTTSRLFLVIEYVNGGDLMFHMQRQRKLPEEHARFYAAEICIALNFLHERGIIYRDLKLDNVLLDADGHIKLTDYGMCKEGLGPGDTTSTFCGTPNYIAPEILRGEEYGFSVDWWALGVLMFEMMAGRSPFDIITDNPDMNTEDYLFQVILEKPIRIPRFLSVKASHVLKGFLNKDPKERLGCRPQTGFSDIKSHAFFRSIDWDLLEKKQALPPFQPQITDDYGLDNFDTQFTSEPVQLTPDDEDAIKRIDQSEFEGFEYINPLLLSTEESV

Broadly, the pIC50 is the negative decadic logarithm of the IC50, by convention in mol/L. High values mean a small IC50, low ones a large IC50. On UHMK1, `CCc1cnn2c(NCc3ccc[n+]([O-])c3)cc(N3CCCC[C@H]3CCO)nc12` [dinaciclib] showed a negative-log IC50 (pIC50) of under 4.52.
As to `O=C(NCCNC(=O)c1cc(Nc2cc(C3CC3)[nH]n2)nc(N2CCN(Cc3ccc(S(=O)(=O)F)cc3)CC2)n1)OC1CC/C=C/CCC1` (stereo unspecified), the negative logarithm of the IC50 (pIC50) at UniProt P05129 was 4.77; at PIK3CD, under 4.52.
Consider `Cc1cc(Nc2cc(C(=O)NCCNC(=O)OC3CC/C=C/CCC3)nc(N3CCN(Cc4ccc(S(=O)(=O)F)cc4)CC3)n2)n[nH]1` (stereo unspecified), for which the pIC50 at UniProt P78368, on STRADB, on TWF1 and on UniProt Q9P286 was under 4.52 throughout.
Turning to `CCNC(=O)c1cc(Nc2cc(C)[nH]n2)nc(N2CCN(Cc3ccc(S(=O)(=O)F)cc3)CC2)n1`, the pIC50 on UniProt P35590, on UniProt P19525 and on UniProt Q05513 was under 4.52 each time.
For the compound `C#CCNC(=O)c1cc(Nc2cc(C3CC3)[nH]n2)nc(N2CCN(Cc3ccc(S(=O)(=O)F)cc3)CC2)n1`, the pIC50 on TYRO3 is under 4.52; on RIPK1 it was 5.32; at MTOR it was under 4.52; on PAK6 it was 5.49; on PASK, 4.7; at UniProt Q6DT37, under 4.52.
